Assays:
[1] = tested on: PBMCs from TG allergic donors; experiment: IL-5 ELISPOT of TG extract-expanded PBMCs from TG allergic donors (peptide pools, single peptides, TG extract); format: cell-based, human
Protocol: Each donor was recruited following Institutional Review Board approval (Federal Wide Assurance number 00000032) and informed consent and assigned a study identification number. Donors were tested for allergen reactivity by skin prick tests to extracts from 32 common allergens. TG allergic donors were identified as having a skin reaction with a wheal of 5 mm in diameter to TG and a clinical history consistent with seasonal grass pollen allergy. Donors that had received specific immunotherapy were excluded. Non-allergic donors were identified as having negative skin prick tests to all allergens and no clinical history of allergy.
PBMCs were isolated by density gradient centrifugation from one unit of blood (˜450 ml) and cryo-preserved as described previously (12). For in vitro expansions, PBMCs were thawed and cultured in RPMI 1640 (Ω Scientific, Tarzana, Calif.) supplemented with 5% human AB serum (Cellgro, Herndon, Va.) at a density of 2×10^6 cells/ml in 24-well plates (BD Biosciences, San Jose, Calif.) and stimulated with TG pollen extract ([…]) (Greer, Lenoir, N.C.). Cells were kept at 37° C., 5% CO2 and additional IL-2 and IL-7 (10 U/ml, eBioscience, San Diego, Calif.) was added every 3 d after initial antigenic stimulation. On day 14, cells were harvested and screened for reactivity against TG-specific peptide pools (16-25 peptides/pool, averaging 20 peptides/pool). On day 17, peptides from positive pools were tested individually to identify the reactive epitopes.
The production of IL-5 from cultured PBMCs in response to antigen stimulation was measured by ELISPOT as described previously (12). Briefly, 1×10^5 cells/well were incubated with peptide, peptide pool or TG extract (10 μg/ml, 5 μg/ml and 50 μg/ml, respectively). After 24 h, cells were removed and plates were incubated with 2 μg/ml biotinylated anti-human IL-5 Ab (Mabtech) at 37° C. After 2 h, plates were washed and avidin-peroxidase-complex was added (Vector Laboratories, Burlingame, Calif.) for 1 h at RT. Peroxidase-conjugated spots were developed with 3-amino-9-ethylcarvazole solution (Sigma-Aldrich, St. Louis, Mo.). Criteria for peptide pool positivity were 100 SFCs/106 PBMCs, p 0.05, and a stimulation index (SI) 2. Criteria for individual peptides were the same except a minimum of 20 SFCs was counted as positive.

human IgE = experiment: 2D gel immunoblot of TG extract with serum pool from 8 TG-allergic donors, IgE reactivity; format: binding; settings: for Antibody reactvity IgE/IgG: IgE: E− = not IgE reactive
Protocol: (§1) 2D DIGE (Difference Gel Electrophoresis) analysis. The complete 2D DIGE analysis was performed by Applied Biomics (Hayward, Calif., US). Briefly, TG extract was run on two 2D gels (3-10 pH range, 12% SDS-acrylamide gel), one was Coomassie blue stained, the other was blotted onto a nitrocellulose membrane. The membrane was then incubated with 5% dried milk in PBS/0.05% Tween to block non-specific binding and subsequently probed with a serum pool from 8 TG-allergic individuals at a dilution of 1:250. IgE and IgG binding was detected using goat anti-human IgE and rabbit anti-human IgG (Sigma-Aldrich, St. Louis, Mo.) and visualized using Cy2-conjugated donkey anti-goat IgG and Cy5-conjugated donkey […] IgG antibodies (Biotium, Hayward, Calif.).
(§2) Mass spectral protein identification was performed by Applied Biomics (Hayward, Calif., US). Briefly, spots of interest were selected from the 2D blot and the corresponding spots were identified on the stained SDS gel and cut out, washed several times to remove staining dye and other inhibitory chemicals. The spots were then dried to absorb maximum digestion buffer. Dried 2D gel spots were rehydrated in digestion buffer containing trypsin. Proteins were digested in-gel at 37° C. and then extracted from the gel with TFA extraction buffer. Subsequently the peptides were desalted using C-18 Zip-tips (Millipore) and mixed with CHCA matrix (alpha-cyano-4-hydroxycinnamic acid) and spotted into wells of a MALDI plate. Mass spectra of the peptides in each sample were obtained using an Applied Biosystems Proteomics Analyzer. The spectra were compared to the amino acid sequences encoded by putative ORFs from the de novo assembled TG pollen transcripts. […] The amino acid sequences encoded by these ORFs were clustered using a custom script at a sequence similarity threshold of 90% to group together highly similar protein sequences. These sequences are encoded by different transcripts from the current assembly, which could arise from splice variants, allelic variation between cells of TG pollen, and from gene families with multiple members. Amino acid sequences that form one cluster are assigned one putative protein ID (Table 1).

human IgG = experiment: 2D gel immunoblot of TG extract with serum pool from 8 TG-allergic donors, IgG reactivity; format: binding; settings: for Antibody reactvity IgE/IgG: IgG: G+ = IgG reactive, G− = not
Protocol: as §1, §2

[2] = tested on: PBMCs from TG allergic donors; experiment: IFNg ELISPOT of TG extract-expanded PBMCs from TG allergic donors (single peptides); format: cell-based, human; settings: T cell recognition in TG allergic patients
[3] = tested on: PBMCs from TG allergic donors; experiment: as above; format: cell-based, human; settings: for Total response IFNg Events: number of positive response events
[4] = tested on: PBMCs from TG allergic donors; experiment: as above; format: cell-based, human; settings: for Total response IFNg SFC: TG allergic patients; for Total response IFNg Events: number of positive response events in TG allergic patients
[5] = tested on: PBMCs from TG allergic donors; experiment: IFNg ELISPOT of TG extract-expanded PBMCs (single peptides); format: cell-based, human; settings: for Total response IFNg SFC: 15-mer peptide; for Total response IFNg Events: number of positive response events to the 15-mer peptide
[6] = tested on: PBMCs from TG allergic donors; experiment: IFNg ELISPOT of TG extract-expanded PBMCs from TG allergic donors (single peptides); format: cell-based, human; settings: T cell recognition in TG allergic patients; remark: listed apart in the source
[7] = IL-5, number of positive response events
[8] = E+ / E− part of the cell, reactivity of the parent antigen
[9] = G+ / G− part of the cell, reactivity of the parent antigen
[10] = number of positive response events in TG allergic patients
[11] = reactivity of the parent antigen (TG protein) from which the peptide is predicted, E+/E−
[12] = reactivity of the parent antigen (TG protein) from which the peptide is predicted, G+/G−
[13] = number of positive response events to the 15-mer peptide
[14] = reactivity of the parent antigen

Row | Substance | Total response IL-5 Events [1, 7] | Antibody reactvity IgE/IgG (IgE part) (human IgE; [8]) | Antibody reactvity IgE/IgG (IgG part) (human IgG; [9]) | Total response IFNg Events [3] | Total response IFNg SFC [3] [SFC] | Total response IL-5 Events [1, 10] | Antibody reactivity IgE/IgG: IgE (human IgE; [11]) | Antibody reactivity IgE/IgG: IgG (human IgG; [12]) | Total response IFNg SFC [4] [SFC] | Total response IFNg Events [4] | Total response IL-5 Events [1, 13] | Antibody reactvity IgE/IgG: IgE (human IgE; [14]) | Antibody reactvity IgE/IgG: IgG (human IgG; [14]) | Total response IFNg Events [5] | also measured
1 | 527 (TVSDEYLAAVAKARR; Phleum pratense) [Peptide 527] | 0 | E+ | G+ | 1 | 73 | – | – | – | – | – | – | – | – | – | Total response IL-5 Events ([1]; T cell recognition in TG allergic patients, number of positive events): 0; Antibody reactvity IgE/IgG (IgE part) (human IgE; IgE reactivity of the parent TG antigen): E+; Antibody reactvity IgE/IgG (IgG part) (human IgG; IgG reactivity of the parent TG antigen): G+; Total response IFNg SFC [2]: 73 SFC; Total response IFNg Events ([2]; number of positive events): 1
2 | 4269 (GVIAGLNVLRIINEP; Phleum pratense) [Peptide 4269] | 0 | E− | G+ | 1 | 33 | 0 | E− | G+ | 33 | 1 | – | – | – | – | –
3 | 5621 (KIASFLDPDGWKVVL; Phleum pratense) [Peptide 5621] | – | – | – | – | – | 0 | E− | G− | 343 | 1 | 0 | E− | G− | 1 | Total response IFNg SFC [5]: 343 SFC
4 | 6119 (KVSKVLNTYIFLLYL; Phleum pratense) [Peptide 6119] | – | – | – | – | – | 1 | E− | G− | – | 0 | 1 | E− | G− | 0 | Total response IL-5 SFC ([1]; 15-mer peptide): 27 SFC; Total response IL-5 SFC ([1]; TG allergic patients): 27 SFC
5 | 26138 (KVINDRFGIVEGLMT; Phleum pratense) [Peptide 26138] | 0 | E+ | G− | 1 | 37 | – | – | – | – | – | – | – | – | – | Total response IL-5 Events ([1]; T cell recognition in TG allergic patients, number of response events): 0; Antibody reactivity IgE/IgG: IgE (human IgE; IgE reactivity (E+/E−) of the source antigen of the peptide): E+; Antibody reactivity IgE/IgG: IgG (human IgG; IgG reactivity (G+/G−) of the source antigen of the peptide): G−; Total response IFNg SFC [6]: 37 SFC; Total response IFNg Events ([6]; number of response events): 1
6 | 48269 (YAVGQKIKAYLEAES; Phleum pratense) [Peptide 48269] | 0 | E− | G+ | 1 | 297 | 0 | E− | G+ | 297 | 1 | – | – | – | – | –
7 | 64111 (KNPLKFDNTYFTELL; Phleum pratense) [Peptide 64111] | – | – | – | – | – | 1 | E− | G− | 47 | 1 | 1 | E− | G− | 1 | Total response IL-5 SFC ([1]; 15-mer peptide): 100 SFC; Total response IL-5 SFC ([1]; TG allergic patients): 100 SFC; Total response IFNg SFC [5]: 47 SFC

From patent US10428124B2, “Timothy grass allergens and methods and uses for immune response modulation” (LA JOLLA INSTITUTE FOR ALLERGY AND IMMUNOLOGY, priority 2012, dated 2019)
